Values of other authors in US10537125B2, “Chlorine dioxide gas releasing package label insert for enhancing microbial safety of food” (priority 2016, dated 2020).

What was measured:
[1] = at 20° C. and 760 mm Hg
[2] = system: Salmonella; settings: one-time application, treatment time 6 min to 120 min
[3] = system: Salmonella; settings: constant ClO2 0.5 mg/L air for 15, 30, and 60 min

## [O][Cl+][O-] [ClO2, chlorine dioxide]
[1]
  solubility in water: about 70 g/L
[2]
  Salmonella inactivation range reported by others: 1.54-5.15 log
[3]
  reduction of Salmonella on mung bean sprouts: up to 4 log CFU Salmonella/g
